Experimental data from patent US4686207A (Abbott Laboratories, priority 1985, dated 1987).
Structures can show the parent of a compound that is named as a salt.

Tests used:
Staph. aureus 10649 [1] = assay: Acute mouse protection, in vivo efficacy vs. Staph. aureus 10649 (100-1000 LD50 s); set-up: species or system Staph. aureus (infected mouse); settings: for ED50 / ED50 Oral (milk) / ED50 Subcutaneous: Acute Mouse Protection
From the text: In Vivo Efficacy vs. Staph. aureus 10649
Model Number Subcutaneous
Thus, the improved oral activity of the compounds of formula I can be attributed to improved gastrointestinal absorption of these compounds.

Staph. aureus 10649 [2] = assay: Chronic abscess model, in vivo efficacy vs. Staph. aureus 10649; set-up: species or system Staph. aureus (infected mouse); settings: mice pretreated with milk
From the text: Thus, the improved oral activity of the compounds of formula I can be attributed to improved gastrointestinal absorption of these compounds. […] In this model, sustained blood levels of antibiotic will prevent reinfection by the organism at the abscess site after the last treatment.

[3] = Serum blood levels after oral administration to beagle dogs (FIG. 1); format: in vivo, beagle dog; settings: 10.0 mg/kg, solution of a buffered salt in water, three beagle dogs, 24 hours
Procedure: The serum half-lives of the new compounds have been measured in both rats and dogs (t0.5 =2-3 hours in rats, 8-12 hours in dogs). […] Similarly, erythromycin A was administered to other dogs at an equal dosage. Serum concentrations of the administered drug were determined hourly over the 24 hours following administration. The results are depicted in FIG. 1.

[4] = test system: gastrointestinal tissues (stomach, duodenum, jejunum and ileum); assay: Gastrointestinal stimulating activity in a dog model, overall; settings: 2 mg/kg intravenously
Procedure: Contractions in the gut were recorded with surgically implanted strain gauges.

[5] = pH 4; cited from earlier work
[6] = in man; cited from earlier work
[7] = in vivo; cited from earlier work
Acid stability = format: physicochemical; settings: compared with erythromycin A
[8] = Staphylococcus aureus, 10649, po, oral, mice pretreated with milk, read-out: ED50 Oral (milk)
[9] = Staphylococcus aureus, 10649, sc, subcutaneous, read-out: ED50 Subcutaneous
[10] = oral, mice pretreated with milk

Question: Which ED50 (Staph. aureus 10649 [1]; [8]) does the source give for `CC[C@H]1OC(=O)[C@H](C)[C@@H](O[C@H]2C[C@@](C)(OC)[C@@H](OC(C)=O)[C@H](C)O2)[C@H](C)[C@@H](O[C@@H]2O[C@H](C)C[C@H](N(C)C)[C@H]2O)[C@](C)(O)C[C@@H](C)C(=O)[C@H](C)[C@@H](O)[C@]1(C)O` [Compound 3, 4"-acetylerythromycin A] here?
Answer: The ED50 was 100 mg/kg.

Question: What about the ED50 (Staph. aureus 10649 [1]; [9]) of the same compound?
Answer: The ED50 was 30 mg/kg.

Question: With “4"-N,N-dimethylglycylerythromycin A 11,12-carbonate 6,9-hemiacetal monohydrochloride salt [Example 7]” as the compound, how does the “ED50 Oral (milk)” value (Staph. aureus 10649 [2]) read?
Answer: The value was 36 mg/kg.

Question: With `CC[C@H]1OC(=O)[C@H](C)[C@@H](O[C@H]2C[C@@](C)(OC)[C@@H](OC(C)=O)[C@H](C)O2)[C@H](C)[C@@H](O[C@@H]2O[C@H](C)C[C@H](N(C)C)[C@H]2O)[C@@]2(C)C[C@@H](C)C(O)(O2)[C@H](C)[C@H]2OC(=O)O[C@@]21C` [Compound 7, 4"-acetylerythromycin A 11,12-carbonate-6,9-hemiacetal free base] as the compound, how does the “half life relative to erythromycin A” value [3] read?
Answer: The value was “markedly longer half life”.

Question: And the “peak blood level relative to erythromycin A” value [3]?
Answer: Its value is “higher peak blood level”.

Question: With `CC[C@H]1OC(=O)[C@H](C)[C@@H](O[C@H]2C[C@@](C)(OC)[C@@H](O)[C@H](C)O2)[C@H](C)[C@@H](O[C@@H]2O[C@H](C)C[C@H](N(C)C)[C@H]2O)[C@](C)(O)C[C@@H](C)C(=O)[C@H](C)[C@@H](O)[C@]1(C)O` [erythromycin A lactobionate] as the compound, how does the “stimulation of the stomach, duodenum, jejunum and ileum” value [4] read?
Answer: Its value is “pronounced stimulation”.

Question: For `CC[C@H]1OC(=O)[C@H](C)[C@@H](O[C@H]2C[C@@](C)(OC)[C@@H](O)[C@H](C)O2)[C@H](C)[C@@H](O[C@@H]2O[C@H](C)C[C@H](N(C)C)[C@H]2O)[C@](C)(O)C[C@@H](C)C(=O)[C@H](C)[C@@H](O)[C@]1(C)O` [Compound 1, erythromycin A], which “antibacterial activity in an environment of high acidity” value [5] is on record?
Answer: The value was “rapidly loses its antibacterial activity”.

Question: What about the serum half-life [6] of the same compound?
Answer: The serum half-life was 2 to 3 h.

Question: What about the ED50 (Staph. aureus 10649 [2]; Staphylococcus aureus, 10649, oral) of the same compound?
Answer: The ED50 was 200 mg/kg.

Question: And the “ED50 Oral (milk)” value (Staph. aureus 10649 [1]; [10])?
Answer: The value was 52 mg/kg.

Question: What about the “ED50 Subcutaneous” value (Staph. aureus 10649 [1]; subcutaneous) of the same compound?
Answer: The value was 9 mg/kg.

Question: And the ED50 (Staph. aureus 10649 [1]; [8])?
Answer: Its ED50 is 81 mg/kg.

Question: And the ED50 (Staph. aureus 10649 [1]; [9])?
Answer: The ED50 was 6 mg/kg.

Question: And the oral absorption [7]?
Answer: The oral absorption was “unreliably absorbed when administered orally”.

Question: For `CC[C@H]1OC(=O)[C@H](C)[C@@H](O[C@H]2C[C@@](C)(OC)[C@@H](OC(C)=O)[C@H](C)O2)[C@H](C)[C@@H](O[C@@H]2O[C@H](C)C[C@H](N(C)C)[C@H]2O)[C@@]2(C)C[C@@H](C)C(O)(O2)[C@H](C)[C@H]2OC(=O)O[C@@]21C` [Compound 4, 4"-acetylerythromycin A 11,12-carbonate-6,9-hemiketal HCl salt], which ED50 (Staph. aureus 10649 [1]; [8]) is on record?
Answer: Its ED50 is 40 mg/kg.

Question: What about the ED50 (Staph. aureus 10649 [1]; [9]) of the same compound?
Answer: Its ED50 is 27 mg/kg.

Question: Which “ED50 Oral (milk)” value (Staph. aureus 10649 [1]; [10]) does the source give for “4"-N-CBZ-sarcosyl erythryomycin A 11,12-carbonate-6,9-hemiacetal [Example 6]” here?
Answer: Its value is 34 mg/kg.

Question: And the “ED50 Subcutaneous” value (Staph. aureus 10649 [1]; subcutaneous)?
Answer: Its value is 35 mg/kg.

Question: Which ED50 (Staph. aureus 10649 [1]; [8]) does the source give for `CC[C@H]1OC(=O)[C@H](C)[C@@H](O[C@H]2C[C@@](C)(OC)[C@@H](O)[C@H](C)O2)[C@H](C)[C@@H](O[C@@H]2O[C@H](C)C[C@H](N(C)C)[C@H]2O)[C@@]2(C)C[C@@H](C)C(O)(O2)[C@H](C)[C@H]2OC(=O)O[C@@]21C` [Compound 2, erythromycin A 11,12-carbonate-6,9-hemiacetal] here?
Answer: The ED50 was 69 mg/kg.

Question: And the ED50 (Staph. aureus 10649 [1]; [9])?
Answer: Its ED50 is 15 mg/kg.

Question: What about the “subcutaneous versus oral activity” value (Staph. aureus 10649 [1]; Table I, milk-pretreated mice) of the same compound?
Answer: Its value is “more active subcutaneously than orally”.

Question: What about the “acid stability relative to erythromycin A” value (Acid stability) of the same compound?
Answer: The value was “significantly more acid-stable than erythromycin A”.
